In patent US20240025919A1, “AZA-TETRACYCLIC OXAZEPINE COMPOUNDS AND USES THEREOF” (Genentech, Inc., priority 2022, published 2024) one finds IC50 data, which are given here for 15 molecules.

In general, IC50 refers to the concentration that inhibits the measured activity by half.

In one assay the target is KRAS G12D (Homo sapiens (Human), UniProt P01116, G12D). The experiment in a line: KRAS G12D LoEnz Biochemical Assay, BODIPY-GDP Exchange TR-FRET (SOS1-mediated nucleotide exchange). The settings on record: read-out: KRas (G12D) GDP HTRF IC50. Background: TR-FRET usually uses a lanthanide donor and a delayed reading to cut background.
Another assay concerns the target KRAS WT (Homo sapiens (Human), UniProt P01116). The experiment in a line: KRAS WT Biochemical Assay, BODIPY-GDP Exchange TR-FRET (Example 502; 0.06 nM KRAS WT, 15 nM GDP, 300 nM SOS1, 120-minute incubation). Conditions: read-out: KRas HTRF IC50. As to the method: Example 502: KRAS WT Biochemical Assay, BODIPY-GDP Exchange TR-FRET. Biochemical compound potencies are assessed by evaluating inhibition of SOS1-mediated nucleotide exchange in KRAS WT. In this assay, the SOS1-promoted exchange of fluorescently-labeled GDP (BOPIDY-GDP) is monitored by time-resolved fluorescence resonance energy transfer (TR-FRET). Compounds solubilized in DMSO are dispensed as concentration series into 384-well white assay plates. A preformed complex of 0.06 nM biotin-tagged recombinant human KRAS WT, 15 nM GDP and 0.06 nM terbium-labeled streptavidin (CisBIO) prepared in 10 uL/well assay buffer (20 mM HEPES, pH 7.5, 50 mM NaCl, 10 mM MgCl2, 0.01% Tween-20 and 1 mM dithiothreitol) is added and allowed to incubate for 10-minutes at room temperature. The reaction is initiated with the addition of 5 uL 300 nM recombinant human SOS1 and 300 nM BODIPY-GDP in assay buffer. After a 120-minute incubation, the fluorescence is measured with excitation at 337 nm and emission at 490 and 520 nm. The TR-FRET ratio is determined as the fluorescence at 520 nm divided by the fluorescence at 490 nm multiplied by 10,000. The results are normalized to percent inhibition based on control samples: DMSO (0% inhibition) and control compound at a concentration that inhibits completely (100% inhibition). The normalized TR-FRET results are plotted against compound concentration, and the data are fit to a 4-parameter Hill equation to determine the IC50 values.

Sequence of KRAS WT (P01116-2 other isoform, or with tags, fused parts or gaps): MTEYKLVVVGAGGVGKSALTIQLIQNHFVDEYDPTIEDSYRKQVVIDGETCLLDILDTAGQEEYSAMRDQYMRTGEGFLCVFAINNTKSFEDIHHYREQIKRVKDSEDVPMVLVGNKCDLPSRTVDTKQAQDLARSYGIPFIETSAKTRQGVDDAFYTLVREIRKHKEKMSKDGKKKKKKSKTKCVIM
Sequence of KRAS G12D (P01116-2 other isoform, or with tags, fused parts or gaps G12D): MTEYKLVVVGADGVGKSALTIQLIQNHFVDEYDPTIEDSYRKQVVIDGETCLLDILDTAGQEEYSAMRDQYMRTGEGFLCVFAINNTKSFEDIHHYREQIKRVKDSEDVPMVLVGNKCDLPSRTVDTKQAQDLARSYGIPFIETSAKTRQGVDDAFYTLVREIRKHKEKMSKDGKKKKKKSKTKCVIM

Consider `Cc1c(F)c(N)cc(-c2nc3c4c(nc(OCC56COC(CN5C)C6)nc4c2F)N2C[C@H]4CC[C@H](N4)[C@H]2[C@H](C)O3)c1C(F)(F)F` [Compound 132, 2-Fluoro-5-((5S,5aS,6S,9R)-1-fluoro-5-methyl-12-((5-methyl-2-oxa-5-azabicyclo[2.2.1]heptan-4-yl)methoxy)-5a,6,7,8,9,10-hexahydro-5H-4-oxa-3,10a,11,13,14-pentaaza-6,9-methanonaphtho[1,8-ab]heptalen-2-yl)-3-methyl-4-(trifluoromethyl)aniline], for which the IC50 at KRAS G12D is 1.47 nM; at KRAS WT, 291 nM.
The corresponding values for `Cc1c(F)c(N)cc(-c2nc3c4c(nc(OC[C@@H]5CC[C@H]6C[C@H](C(=O)N(C)C)CCN56)nc4c2F)N2C[C@H]4CC[C@H](N4)[C@H]2[C@H](C)O3)c1C(F)(F)F` (single isomer, unassigned) [133 (isomer 4)] are 0.08 nM and 2.3 nM.
The corresponding values for `Cc1c(F)c(N)cc(-c2nc3c4c(nc(OC[C@@]56CCCN5C[C@H](F)C6)nc4c2F)N2C[C@H]4CC[C@H](N4)[C@H]2[C@H](C)O3)c1C=O` [Compound 59, 4-Amino-3-fluoro-6-((5S,5aS,6S,9R)-1-fluoro-12-(((2R,7aS)-2-fluorotetrahydro-1H-pyrrolizin-7a(5H)-yl)methoxy)-5-methyl-5a,6,7,8,9,10-hexahydro-5H-4-oxa-3,10a,11,13,14-pentaaza-6,9-methanonaphtho[1,8-ab]heptalen-2-yl)-2-methylbenzaldehyde] are 0.31 nM and 51.4 nM.
The corresponding values for `Cc1c(F)c(N)cc(-c2nc3c4c(nc(OCCCN5CCOCC5)nc4c2F)N2C[C@H]4CC[C@H](N4)[C@H]2[C@H](C)O3)c1C(F)(F)F` [Compound 138, 2-Fluoro-5-((5S,5aS,6S,9R)-1-fluoro-5-methyl-12-(3-morpholinopropoxy)-5a,6,7,8,9,10-hexahydro-5H-4-oxa-3,10a,11,13,14-pentaaza-6,9-methanonaphtho[1,8-ab]heptalen-2-yl)-3-methyl-4-(trifluoromethyl)aniline] are 0.42 nM and 115 nM.
As for `Cc1c(F)c(N)cc(-c2nc3c4c(nc(OCCC5(N6CCOCC6)COC5)nc4c2F)N2C[C@H]4CC[C@H](N4)[C@H]2[C@H](C)O3)c1C(F)(F)F` [Compound 149, 2-Fluoro-5-((5S,5aS,6S,9R)-1-fluoro-5-methyl-12-(2-(3-morpholinooxetan-3-yl)ethoxy)-5a,6,7,8,9,10-hexahydro-5H-4-oxa-3,10a,11,13,14-pentaaza-6,9-methanonaphtho[1,8-ab]heptalen-2-yl)-3-methyl-4-(trifluoromethyl)aniline], the IC50 worked out at 18.4 nM at KRAS G12D and 5450 nM on KRAS WT.
The corresponding values for `Cc1c(F)c(N)cc(-c2nc3c4c(nc(OCC5(CN6CCO[C@H](CF)C6)CC5)nc4c2F)N2C[C@H]4CC[C@H](N4)[C@H]2[C@H](C)O3)c1C(F)(F)F` [Compound 171, 2-Fluoro-5-((5S,5aS,6S,9R)-1-fluoro-12-((1-(((S)-2-(fluoromethyl)morpholino)methyl)cyclopropyl)methoxy)-5-methyl-5a,6,7,8,9,10-hexahydro-5H-4-oxa-3,10a,11,13,14-pentaaza-6,9-methanonaphtho[1,8-ab]heptalen-2-yl)-3-methyl-4-(trifluoromethyl)aniline] are 0.253 nM and 13.7 nM.
For `Cc1cc(N)c(F)c(-c2nc3c4c(nc(OC[C@@H]5CC[C@H]6COCCN65)nc4c2F)N2C[C@H]4CC[C@H](N4)[C@H]2[C@H](C)O3)c1C1CC1` [Compound 98, 4-Cyclopropyl-2-fluoro-3-((5S,5aS,6S,9R)-1-fluoro-12-(((6S,8aS)-hexahydro-1H-pyrrolo[2,1-c][1,4]oxazin-6-yl)methoxy)-5-methyl-5a,6,7,8,9,10-hexahydro-5H-4-oxa-3,10a,11,13,14-pentaaza-6,9-methanonaphtho[1,8-ab]heptalen-2-yl)-5-methylaniline] the same measures were 4.25 nM and 553 nM.
The corresponding values for `Cc1c(F)c(N)cc(-c2nc3c4c(nc(OC[C@]56COC[C@H]5CCN6C)nc4c2F)N2C[C@H]4CC[C@H](N4)[C@H]2[C@H](C)O3)c1C(F)(F)F` (single isomer, unassigned) [134 (isomer 1)] are 0.19 nM and 39.4 nM.
With `Cc1c(F)c(N)cc(-c2nc3c4c(nc(OC[C@@]56CCCN5C/C(=C\F)C6)nc4c2F)N2C[C@H]4CC[C@H](N4)[C@H]2[C@H](C)O3)c1C(F)(F)F` [Compound 64, 2-fluoro-5-((5S,5aS,6S,9R)-1-fluoro-12-(((S,Z)-2-(fluoromethylene)tetrahydro-1H-pyrrolizin-7a(5H)-yl)methoxy)-5-methyl-5a,6,7,8,9,10-hexahydro-5H-4-oxa-3,10a,11,13,14-pentaaza-6,9-methanonaphtho[1,8-ab]heptalen-2-yl)-3-methyl-4-(trifluoromethyl)aniline], the IC50 came to 0.12 nM at KRAS G12D and 0.738 nM at KRAS WT.
The corresponding values for `Cc1c(F)c(N)cc(-c2nc3c4c(nc(OCCCN5C[C@H]6C[C@@H]5CO6)nc4c2F)N2C[C@H]4CC[C@H](N4)[C@H]2[C@H](C)O3)c1C(F)(F)F` [Compound 163, 5-((5S,5aS,6S,9R)-12-(3-((1R,4R)-2-Oxa-5-azabicyclo[2.2.1]heptan-5-yl)propoxy)-1-fluoro-5-methyl-5a,6,7,8,9,10-hexahydro-5H-4-oxa-3,10a,11,13,14-pentaaza-6,9-methanonaphtho[1,8-ab]heptalen-2-yl)-2-fluoro-3-methyl-4-(trifluoromethyl)aniline] are 0.11 nM and 19.6 nM.
Turning to `C[C@@H]1Oc2nc(-c3c(C(F)(F)F)cc(F)c(N)c3F)c(F)c3nc(OC[C@@]45CCCN4C[C@H](F)C5)nc(c23)N2C[C@H]3CC[C@H](N3)[C@@H]12` [Compound 90, 2,6-Difluoro-3-((5S,5aS,6S,9R)-1-fluoro-12-(((2R,7aS)-2-fluorotetrahydro-1H-pyrrolizin-7a(5H)-yl)methoxy)-5-methyl-5a,6,7,8,9,10-hexahydro-5H-4-oxa-3,10a,11,13,14-pentaaza-6,9-methanonaphtho[1,8-ab]heptalen-2-yl)-4-(trifluoromethyl)aniline], the IC50 on KRAS G12D is 0.47 nM; on KRAS WT it was 71.6 nM.
The corresponding values for `Cc1nc(N)cc(-c2nc3c4c(nc(OC[C@@H]5CC[C@H]6COCCN65)nc4c2F)N2C[C@H]4CC[C@H](N4)[C@H]2[C@H](C)O3)c1C(F)(F)F` [Compound 112, 4-((5S,5aS,6S,9R)-1-fluoro-12-(((6S,8aS)-hexahydro-1H-pyrrolo[2,1-c][1,4]oxazin-6-yl)methoxy)-5-methyl-5a,6,7,8,9,10-hexahydro-5H-4-oxa-3,10a,11,13,14-pentaaza-6,9-methanonaphtho[1,8-ab]heptalen-2-yl)-6-methyl-5-(trifluoromethyl)pyridin-2-amine] are 0.48 nM and 62.8 nM.
For `Cc1c(F)c(N)cc(-c2nc3c4c(nc(OC[C@@H]5CCC6C=C(F)CCN65)nc4c2F)N2C[C@H]4CC[C@H](N4)[C@H]2[C@H](C)O3)c1C(F)(F)F` (stereo partly drawn) [Compound 120, 2-fluoro-5-((5S,5aS,6S,9R)-1-fluoro-12-(((3S)-7-fluoro-1,2,3,5,6,8a-hexahydroindolizin-3-yl)methoxy)-5-methyl-5a,6,7,8,9,10-hexahydro-5H-4-oxa-3,10a,11,13,14-pentaaza-6,9-methanonaphtho[1,8-ab]heptalen-2-yl)-3-methyl-4-(trifluoromethyl)aniline] the same measures were 0.24 nM and 44.5 nM.
For `Cc1cc(-c2nc3c4c(nc(OC[C@@]56CCCN5C[C@H](F)C6)nc4c2F)N2C[C@H]4CC[C@H](N4)[C@H]2[C@H](C)O3)c(F)c(N)n1` [Compound 177, 3-Fluoro-4-((5S,5aS,6S,9R)-1-fluoro-12-(((2R,7aS)-2-fluorotetrahydro-1H-pyrrolizin-7°(5H)-yl)methoxy)-5-methyl-5°,6,7,8,9,10-hexahydro-5H-4-oxa-3,10°,11,13,14-pentaaza-6,9-methanonaphtho[1,8-ab]heptalen-2-yl)-6-methylpyridin-2-amine] the same measures were 126 nM and 11700 nM.
As to `Cc1cc(N)c(F)c(-c2nc3c4c(nc(OC[C@@]56CCCN5C[C@H](F)C6)nc4c2F)N2C[C@H]4CC[C@H](N4)[C@H]2[C@H](C)O3)c1I` [Compound 108, 2-Fluoro-3-((5S,5aS,6S,9R)-1-fluoro-12-(((2R,7aS)-2-fluorotetrahydro-1H-pyrrolizin-7a(5H)-yl)methoxy)-5-methyl-5a,6,7,8,9,10-hexahydro-5H-4-oxa-3,10a,11,13,14-pentaaza-6,9-methanonaphtho[1,8-ab]heptalen-2-yl)-4-iodo-5-methylaniline], the figures for the IC50 on KRAS G12D and on KRAS WT were 0.325 nM and 37.6 nM, respectively.
